Assay results: patent publication US20260248787A9, “MEDICAMENT FOR TREATING CANCER COMPRISING OPTICALLY ACTIVE AZABICYCLO RING DERIVATIVE” (Sumitomo Pharma Co., Ltd., priority 2023, published 2026)

Assays:
[1] = tested on: OCI-AML3 cells; test: Tumor-bearing mice transplanted with OCI-AML3 cells, with venetoclax and azacitidine, T/C (Example 13); format: in vivo; conditions: oral, 21 days
Description: The present compound was weighed and dissolved in 0.5 w/v % Methyl Cellulose 400 solution to give the compound concentrations of 20 mg/mL and 10 mg/mL. Venetoclax was weighed and suspended in a mixed solution of Phosal 50 propylene glycol (60%)/Polyethylene glycol-400 (30%)/Ethanol (10%) to give the compound concentration of 5 mg/mL. Azacitidine was weighed and dissolved in saline to give the compound concentration of 0.3 mg/mL.
OCI-AML3 cells (DSMZ) were intradermally implanted around the ventral region of 6-week old NOD. CB17-PrkdcSCID/J mice (female, The Jackson Laboratory Japan) at 1×10^6 cells/mouse. […] The tumor volume was measured over time from the start of the administration, and the reduction effect of the tumor volume due to the compound-administration was evaluated. The tumor volume was calculated by the following formula using short axis and long axis of the tumor measured with an electronic caliper (Mitutoyo).
(§1) The control administration group in which only the solvent was administered and the test substance administration group were compared, and T/C was calculated using the following formula to evaluate the antitumor effect.

[2] = tested on: OCI-AML3 cells; test: Tumor-bearing mice transplanted with OCI-AML3 cells, with cytarabine and daunorubicin, T/C (Example 14); format: in vivo; conditions: oral, 21 days
Description: Cytarabine (Cylocide Injection 200 mg/10 mL, Nippon Shinyaku Co., Ltd.) was diluted with saline (Otsuka Saline Injection, Otsuka Pharmaceutical Factory Co., Ltd.) to 8 mg/mL. Daunorubicin (Daunomycin for injection 20 mg, Meiji, Seika Pharma Co., Ltd.) was dissolved in saline (Otsuka Saline Injection, Otsuka Pharmaceutical Factory Co., Ltd.) to 0.2 mg/mL.
OCI-AML3 cells (DSMZ) were intradermally implanted around the ventral region of 7-week old NOD. CB17-PrkdcSCID/J mice (female, The Jackson Laboratory Japan) at 1×10^6 cells/mouse. […] Cytarabine was intraperitoneally administered to the mice at a dose of 80 mg/kg once a day for 5 days. Daunorubicin was intravenously administered to the mice at a dose of 1 mg/kg once a day for 3 days. The tumor volume was measured over time from the start of the administration, and the reduction effect of the tumor volume due to the compound-administration was evaluated. The tumor volume was calculated by the following formula using short axis and long axis of the tumor measured with an electronic caliper (Mitutoyo).
as §1

[3] = tested on: HOXA9, MEIS1, PBX3, CD11b gene expression; test: Phase 1/2 clinical study, pharmacodynamic gene expression biomarkers in bone marrow aspirate; format: in vivo, human
Text: All dose levels and time points are combined.
(2) FIGS. 6A and 6B show average of the maximum percentage change of gene expression of leukemic (HOXA9, MEIS1, PBX3) and differentiation (CD11b) biomarkers in bone marrow aspirate of patients from all dose levels, for whom a baseline and post-baseline sample were collected.

[4] = tested on: MOLM-13 cells; test: Tumor-bearing mice transplanted with MOLM-13 cells, with gilteritinib, T/C (Example 12); format: in vivo; conditions: MOLM-13 tumor-bearing mice, oral, 18 days
Description: The antitumor effects of the present compound and gilteritinib were evaluated. The present compound was weighed and dissolved in 0.5 w/v % Methyl Cellulose 400 solution to give the compound concentrations of 20 mg/mL and 10 mg/mL. Gilteritinib was weighed and suspended in 0.5 w/v % Methyl Cellulose 400 solution to give the compound concentrations of 3 mg/mL.
MOLM-13 cells (DSMZ) were intradermally implanted around the ventral region of 5-week old NOD. CB17-PrkdcSCID/J mice (female, The Jackson Laboratory Japan) at 1×10^6 cells/mouse. After confirming the engraftment of MOLM-13 cells 6 days after the transplantation, the present compound was orally administered to the mice at a dose of 100 mg/kg or 200 mg/kg, and gilteritinib was orally administered to the mice at a dose of 30 mg/kg, once a day for 18 days. The tumor volume was measured over time from the start of the administration, and the reduction effect of the tumor volume due to the compound-administration was evaluated. The tumor volume was calculated by the following formula using short axis and long axis of the tumor measured with an electronic caliper (Mitutoyo).
as §1

[5] = tested on: acute leukemia with MLLr or NPM1m; test: Phase 1/2 clinical study, clinical activity (responses by ELN 2017); format: in vivo, human
Description: In the present test, signs of clinical activity have been observed, including decreases and normalization of bone marrow blasts, elimination of blasts in peripheral blood, and responses according to European LeukemiaNet 2017 Response Criteria. A patient with MLLr assigned to 120 mg BID in Arm A achieved MLFS (morphologic leukemia-free state), while a patient with MLLr assigned to 60 mg BID with azoles in Arm B achieved CRh (complete remission with partial hematological recovery) and CRi (complete remission with incomplete hematologic recovery). Substantial changes in several biomarkers have also been observed, including decreases in HOXA9, PBX3, and MEIS1, and increases in CD11b. These changes have been particularly notable in patients with MLLr or NPM1m.
(1) Of 43 patients enrolled, 17 patients had MLLr and 9 patients had NPM1m, with 19 evaluable at the time of data extraction and 5 responders per ELN 2017 (FIG. 7A). At 200 mg BID in Arm B, 4 evaluable patients had MLLr or NPM1m (n=1 and 3, respectively) and 1 patient achieved CRh/CRi, 1 patient achieved CRi, and 1 patient achieved MLFS. Two additional patients with MLLr also achieved response per ELN2017 at lower dose levels (CRh/CRi and MLFS).

[6] = Phase 1/2 clinical study, plasma pharmacokinetic evaluation; format: in vivo; conditions: human, oral, 140 mg, Cycle 1 Day 1, 140 mg BID Arm B (with azole), N=2, mean
[7] = patients with MLLr or NPM1m AML, all dose levels and time points (FIG. 5)
[8] = patients with target mutations, all dose levels (FIGS. 6A, 6B)
[9] = patients, notable with MLLr or NPM1m (Example 3)
[10] = 200 mg BID Arm B, 4 evaluable patients with MLLr or NPM1m

C=C1C[C@@H]2CC[C@H]1[C@@H](C(=O)N1CCC3(CC1)CN(c1ncncc1Oc1ccc(F)cc1C(=O)N(C(C)C)C(C)C)C3)N2 [the present compound, 5-fluoro-2-[(4-{7-[(1S,3S,4R)-5-methylidene-2-azabicyclo[2.2.2]octane-3-carbonyl]-2,7-diazaspiro[3.5]nonan-2-yl}pyrimidin-5-yl)oxy]-N,N-di(propan-2-yl)benzamide]
T/C ([1]; 100 mg/kg): 47.1%
T/C ([1]; 200 mg/kg): 34.3%
T/C ([2]; 100 mg/kg): 53.1%
T/C ([2]; 200 mg/kg): 41.7%
gene expression of CD11b in bone marrow aspirate [3, 7]: increases
gene expression of HOXA9, PBX3 and MEIS1 in bone marrow aspirate [3, 7]: Clear decreases
gene expression of CD11b in bone marrow aspirate [3, 8]: increases
gene expression of HOXA9, PBX3 and MEIS1 in bone marrow aspirate [3, 8]: Clear decreases
change in CD11b [3, 9]: increases
change in HOXA9, PBX3 and MEIS1 [3, 9]: decreases
T/C ([4]; 100 mg/kg): 43.8%
T/C ([4]; 200 mg/kg): 1.8%
patients who achieved CRh/CRi [5, 10]: 1 patient
patients who achieved CRi [5, 10]: 1 patient
patients who achieved MLFS [5, 10]: 1 patient
response achieved (ELN 2017) ([5]; a patient with MLLr, 60 mg BID with azoles Arm B): CRh and CRi
Cmax [6]: 3100 ng/mL
